Measurements from PMC10108347, “Heterobifunctional Ligase Recruiters Enable pan-Degradation of Inhibitor of Apoptosis Proteins” (Journal of Medicinal Chemistry, 2023).
pIC50: −log10 of the molar value. “And” between values parts separate entries of the source, which are not always exact repeats. Equal values may be shown once. Read-outs that look alike come from different tables or passages of the source.

Experiments:
[1] = test system: HEL; assay: CellTiter-Glo cell viability assay, HEL; type: cell-based; conditions: Homo sapiens
Procedure: (§1) As TNF-α and related signaling cascades represent crucial factors for the single-agent activity of IAP-targeting compounds,[29],[38],[39],[55] the viability inhibition of sensitive cell lines was evaluated in the presence and absence of this inflammatory stimulus. […] These effects were independent of IAP baseline levels (Figure S16), which is in agreement with the previous studies of IAP antagonists.
(§2) Cells were seeded in 384-well plates with respective treatments, and plates were incubated at 37 °C for 96 h. Viability assays were performed with or without the addition of TNF-α at 1 ng/mL. The cell viability readout was measured using the CellTiter-Glo Luminescent Cell Viability Assay (Promega, Madison, USA) and measured with a Synergy LX Multi-Mode plate reader (BioTek, Vermont, USA). All conditions were normalized to the DMSO-treated control. Data represents the mean ± SD of biological triplicates.

[2] = test system: SUDHL4; assay: CellTiter-Glo cell viability assay, SUDHL4; type: cell-based; conditions: Homo sapiens
Procedure: as §1, §2

[3] = molecular target: T1, cIAP1 (BIRC2) (Homo sapiens, UniProt Q13490); assay: diaPASEF quantitative proteomics in MM.1S cells: cIAP1 (BIRC2); type: cell-based; conditions: 3 h; for cIAP1 level in global proteomics (in words): 100 nM, diaPASEF
T1 construct: endogenous in cells; host or cells: MM.1S
Procedure: To analyze the proteome-wide degradation selectivity of hetero-PROTACs 9, 25, and 27, a diaPASEF-based mass spectrometry approach was employed.[54] MM.1S cells were treated with 100 nM PROTACs for 3 h. […] Accordingly, global proteomic plots show the mathematically imputed levels of IAP proteins in treatment groups if the corresponding IAP was detected in the control treatment (see also Experimental Section).
MM1s cells were treated with DMSO or 0.1 μM of compound for 3 h. The cells were harvested by centrifugation and washed with phosphate-buffered saline before snap-freezing in liquid nitrogen. The cells were lysed by addition of lysis buffer (8 M urea, 50 mM NaCl, 50 mM 4-(2-hydroxyethyl)-1-piperazine-ethanesulfonic acid (EPPS) pH 8.5, protease, and phosphatase inhibitors) and homogenization by bead beating (BioSpec) for three repeats of 30 s at 2400. Bradford assay was used to determine the final protein concentration in the clarified cell lysate. 50 μg of protein for each sample was reduced, alkylated, and precipitated using methanol/chloroform as previously described,[64] and the resulting washed precipitated protein was allowed to air dry. The precipitated protein was resuspended in 4 M urea, 50 mM HEPES pH 7.4, followed by dilution to 1 M urea with the addition of 200 mM EPPS, pH 8. Proteins were first digested with LysC (1:50; enzyme/protein) for 12 h at RT. The LysC digestion was diluted to 0.5 M urea with 200 mM EPPS pH 8, followed by digestion with trypsin (1:50; enzyme/protein) for 6 h at 37 °C. Sample digests were acidified with formic acid to a pH of 2–3 prior to desalting using C18 solid-phase extraction plates (SOLA, Thermo Fisher Scientific). Desalted peptides were dried in a vacuum centrifuge and reconstituted in 0.1% formic acid for LC–MS analysis.
Data were collected using a TimsTOF Pro2 (Bruker Daltonics, Bremen, Germany) coupled to a nanoElute LC pump (Bruker Daltonics, Bremen, Germany) via a CaptiveSpray nanoelectrospray source. Peptides were separated on a reversed-phase C18 column (25 cm × 75 μm ID, 1.6 μM, IonOpticks, Australia) containing an integrated captive spray emitter. Peptides were separated using a 50 min gradient of 2–30% buffer B (acetonitrile in 0.1% formic acid) with a flow rate of 250 nL/min and column temperature maintained at 50 °C.
Data-Dependent Acquisition (DDA) was performed in the Parallel Accumulation-Serial Fragmentation (PASEF) mode to determine effective ion mobility windows for downstream diaPASEF data collection.[54] The diaPASEF parameters included 100% duty cycle using accumulation and ramp times of 50 ms each, 1 TIMS-MS scan, and 10 PASEF ramps per acquisition cycle. The TIMS-MS survey scan was acquired between 100–1700 m/z and 1/K0 of 0.7–1.3 V × s/cm^2. Precursors with 1–5 charges were selected, and those that reached an intensity threshold of 20,000 arbitrary units were actively excluded for 0.4 min. The quadrupole isolation width was set to 2 m/z for m/z < 700 and 3 m/z for m/z > 800, with the m/z between 700 and 800 m/z being interpolated linearly. The TIMS elution voltages were calibrated linearly with three points (Agilent ESI-L Tuning Mix Ions; 622, 922, 1222 m/z) to determine the reduced ion mobility coefficients (1/K0). To perform diaPASEF, the precursor distribution in the DDA m/z-ion mobility plane was used to design an acquisition scheme for DIA data collection, which included two windows in each 50 ms diaPASEF scan. […]

[4] = molecular target: cIAP2 (Homo sapiens, UniProt Q13489); assay: Immunoblotting (western blot) quantification of cIAP2 levels in MM.1S cells; set-up: Dmax: dose or concentration left out as unconfirmed
Procedure: To evaluate the capability of our panel of hetero-PROTACs for E3 ligase degradation, VHL19, VHL30, CRBN, cIAP1, cIAP2, and XIAP levels were quantified by western blot analyses. […] SDS-PAGE was performed, and proteins were then transferred onto PVDF membranes. Blotted membranes were blocked with 5% milk in Tris-buffered saline/Tween20 (TBST). Primary antibodies were diluted in 5% BSA in TBST, and incubations were performed overnight at 4 °C. Secondary HRP-conjugated antibodies diluted in 5% milk were incubated for 1 h at room temperature. Detection of proteins on PVDF was carried out using the WesternBright ECL HRP substrate or the WesternBright Sirius HRP substrate (Advansta, San Jose, USA) and imaged with LAS 4000× (Fujifilm). Membranes were subjected to 10 min incubation with Restore Western Blot Stripping Buffer (Thermo Fisher Scientific, Waltham, USA), followed by TBST washes. After brief re-activation with methanol, the membranes were blocked, and further probing of proteins was carried out.
Quantification of blots was performed using ImageJ software (National Institutes of Health).

[5] = test system: IAPs (cIAP1, cIAP2, XIAP); assay: Immunoblotting of IAPs in MM.1S cells, overall degradation profile, time course and washout; type: cell-based; conditions: for time to complete degradation of cIAP1, cIAP2 and XIAP: 0.1 μM, time course; for IAP degradation profile (in words): 16 h, western blot, concentration (10 nM to 1 μM)
Procedure: Next, we examined the persistence of IAP degradation in MM.1S cells after a single exposure to 1 μM of 9 and subsequent removal of the compound. […] The reliance on CRL2^VHL was assessed with a neddylation inhibitor MLN4924, which blocks the activity of CRLs (Figure S13A).

[6] = Log D7.4 measurement by chromatographic (fast-gradient HPLC) method; conditions: pH 7.4
Procedure: The system was calibrated by plotting the retention times of six different drugs (atenolol, metoprolol, labetalol, diltiazem, triphenylene, and permethrin) versus their literature-known log D7.4 in a calibration line (R^2 = 0.99). Subsequently, the mean retention times of the analytes were taken to calculate their log D7.4 values with the aid of the calibration line. At least two independent measurements of each analyte were performed.

[7] = MM1.S, 16 h, read-out: %remaining protein cIAP2, MM.1S cells, 16 h treatment at 0.1 μM, normalized to loading control and DMSO

T1 sequence (Q13490 whole entry): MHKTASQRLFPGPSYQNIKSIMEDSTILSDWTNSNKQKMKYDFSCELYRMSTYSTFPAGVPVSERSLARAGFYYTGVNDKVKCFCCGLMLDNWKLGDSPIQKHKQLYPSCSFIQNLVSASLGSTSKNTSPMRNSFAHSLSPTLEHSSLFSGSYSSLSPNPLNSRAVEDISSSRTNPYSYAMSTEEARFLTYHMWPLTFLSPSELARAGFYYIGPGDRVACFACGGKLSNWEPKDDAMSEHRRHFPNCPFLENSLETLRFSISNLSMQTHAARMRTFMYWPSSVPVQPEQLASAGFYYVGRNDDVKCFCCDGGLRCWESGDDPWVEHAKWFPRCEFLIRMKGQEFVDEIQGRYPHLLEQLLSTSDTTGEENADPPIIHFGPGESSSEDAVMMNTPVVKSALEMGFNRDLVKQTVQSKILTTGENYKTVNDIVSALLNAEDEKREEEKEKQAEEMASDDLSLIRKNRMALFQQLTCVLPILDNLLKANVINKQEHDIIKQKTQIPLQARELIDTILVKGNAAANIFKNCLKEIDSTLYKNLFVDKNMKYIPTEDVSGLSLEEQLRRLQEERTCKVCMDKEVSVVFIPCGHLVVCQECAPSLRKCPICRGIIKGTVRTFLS
Sequence of cIAP2 (Q13489 whole entry): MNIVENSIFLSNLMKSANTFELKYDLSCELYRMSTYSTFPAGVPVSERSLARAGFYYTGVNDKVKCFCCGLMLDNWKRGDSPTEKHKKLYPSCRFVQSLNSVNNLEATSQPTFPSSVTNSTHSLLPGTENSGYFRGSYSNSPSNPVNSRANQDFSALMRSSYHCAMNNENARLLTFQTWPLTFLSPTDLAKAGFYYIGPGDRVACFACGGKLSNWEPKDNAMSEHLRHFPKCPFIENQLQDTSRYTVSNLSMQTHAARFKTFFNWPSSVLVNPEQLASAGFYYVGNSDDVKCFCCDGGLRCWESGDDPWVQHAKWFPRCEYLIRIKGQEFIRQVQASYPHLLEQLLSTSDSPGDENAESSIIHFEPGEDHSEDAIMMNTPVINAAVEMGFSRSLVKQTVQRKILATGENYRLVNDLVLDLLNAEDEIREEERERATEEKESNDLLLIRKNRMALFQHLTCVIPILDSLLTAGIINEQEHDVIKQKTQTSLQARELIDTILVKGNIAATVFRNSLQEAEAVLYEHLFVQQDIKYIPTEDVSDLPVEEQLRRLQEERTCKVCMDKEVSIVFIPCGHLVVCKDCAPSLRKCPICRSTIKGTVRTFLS

Compound | pIC50 ([1]; HEL, read-out: HEL) | pIC50 ([2]; SU-DHL-4, read-out: SUDHL4) | logFC BIRC2 ([3]; 0.1 μM, log2 fold change compound vs CTRLs (limma)) | cIAP1 level in global proteomics (in words) [3] | remaining activity at 0.1 µM ([4]; MM1.S, 16 h, read-out: %remaining protein cIAP2) [%] | time to complete degradation of cIAP1, cIAP2 and XIAP [5] [h] | IAP degradation profile (in words) [5] | chromatographic logD [6] | pIC50 ([1]; HEL, AML cell line, 96 h, TNFα-challenged, read-out: IC50 cell viability HEL) | pIC50 ([2]; SU-DHL-4, DLBCL cell line, 96 h, TNFα-challenged, read-out: IC50 cell viability SUDHL4) | remaining activity at 0.1 µM [4, 7] [%] | Dmax ([4]; MM1.S, read-out: Dmax cIAP2 (maximum degradation), MM.1S cells, 16 h) [%] | Dmax cIAP2 (maximum degradation) ([4]; MM.1S cells, 16 h, at 0.1 μM) [%] | DC50 ([4]; read-out: DC50,16h cIAP2, MM.1S cells, 16 h, densitometric quantification of western blots, n = 4) [nM] | persistence of IAP degradation after washout (in words) ([5]; single exposure to 1 μM for 16 h, then compound removal) | pIC50 ([1]; SI csv, head prints only the cell line, no quantity or unit, values parallel Table 1/S8, read-out: HEL) | pIC50 ([2]; SU-DHL-4, SI csv, head prints only the cell line, no quantity or unit, values parallel Table 1/S8, read-out: SUDHL4) | cIAP2 degradation (in words) ([4]; MM.1S cells, 16 h, western blot, 0.1 or 1 μM)
CN[C@@H](C)C(=O)N[C@H](C(=O)N1C[C@@H](Oc2cccc(OCCOCCCCCCOCCCCCCNc3cccc4c3C(=O)N(C3CCC(=O)NC3=O)C4=O)c2)C[C@H]1C(=O)N[C@@H]1CCCc2ccccc21)C1CCCCC1 (stereo partly drawn) [PROTAC 25, (2S,4S)-1-((S)-2-Cyclohexyl-2-((S)-2-(methylamino)propanamido)acetyl)-4-(3-(2-((6-((6-((2-(2,6-dioxopiperidin-3-yl)-1,3-dioxoisoindolin-4-yl)amino)hexyl)oxy)hexyl)oxy)ethoxy)phenoxy)-N-((R)-1,2,3,4-tetrahydronaphthalen-1-yl)pyrrolidine-2-carboxamide] | 6.52 | 6.04 | -2.352 | below the detection level | 8 | ≤ 3 | pronounced pan-IAP depletion and Complete cIAP1 and XIAP depletion occurred already at 10 nM and 0.1 μM concentration was needed for the complete depletion of all IAPs | 6 |  |  |  |  |  |  |  |  |  | 
CN[C@@H](C)C(=O)N[C@H](C(=O)N1C[C@@H](Oc2cccc(OCCCCC(=O)N[C@H](C(=O)N3C[C@H](O)C[C@H]3C(=O)N[C@@H](C)c3ccc(-c4scnc4C)cc3)C(C)(C)C)c2)C[C@H]1C(=O)N[C@@H]1CCCc2ccccc21)C1CCCCC1 [PROTAC 9, (2S,4S)-1-((S)-2-Cyclohexyl-2-((S)-2-(methylamino)propanamido)acetyl)-4-(3-((5-(((S)-1-((2S,4R)-4-hydroxy-2-(((S)-1-(4-(4-methylthiazol-5-yl)phenyl)ethyl)carbamoyl)pyrrolidin-1-yl)-3,3-dimethyl-1-oxobutan-2-yl)amino)-5-oxopentyl)oxy)phenoxy)-N-((R)-1,2,3,4-tetrahydronaphthalen-1-yl)pyrrolidine-2-carboxamide] |  |  |  | below the detection level |  | ≤ 3 | induces cIAP1, cIAP2, XIAP, and VHL30 degradation in a dose-dependent manner |  | 5.93 | 5.77 | 21 | 90 | >90 | 6.2 | nearly full and stable pan-degradation of IAPs up to 72 h |  |  | 
CN[C@@H](C)C(=O)N[C@@H](C(=O)N1CCC[C@H]1C(=O)N[C@@H]1c2ccccc2C[C@@H]1OCC#CC#CCO[C@H]1Cc2ccccc2[C@H]1NC(=O)[C@@H]1CCCN1C(=O)[C@H](NC(=O)[C@H](C)NC)C1CCCCC1)C1CCCCC1 [AZD5582, reference compound] |  |  |  | depleted cIAP1 below the detection level |  |  | potent cIAP autodegradation | 4.1 |  |  |  |  |  |  |  | 7.19 | 5.79 | substantial degradation
CN[C@@H](C)C(=O)N[C@H](C(=O)N1C[C@@H](Oc2cccc(OCCCCCCOCCCCCCOCCCCCCNc3cccc4c3C(=O)N(C3CCC(=O)NC3=O)C4=O)c2)C[C@H]1C(=O)N[C@@H]1CCCc2ccccc21)C1CCCCC1 (stereo partly drawn) [PROTAC 27, (2S,4S)-1-((S)-2-Cyclohexyl-2-((S)-2-(methylamino)propanamido)acetyl)-4-(3-((6-((6-((6-((2-(2,6-dioxopiperidin-3-yl)-1,3-dioxoisoindolin-4-yl)amino)hexyl)oxy)hexyl)oxy)hexyl)oxy)phenoxy)-N-((R)-1,2,3,4-tetrahydronaphthalen-1-yl)pyrrolidine-2-carboxamide] |  |  |  | no impact |  |  | isoform-selective XIAP degradation | 7.2 |  |  | 46 |  |  |  |  |  |  | 
